Literature values, collected in patent publication US12502363B2, “Ketamine and ketamine/nap for treatment of ADNP syndrome and related neurological conditions” (ADNP Kids Research Foundation, priority 2019, dated 2025).

What was measured:
[1] = system: ADNP gene expression in the somatosensory cortex; details: somatosensory cortex of post-natal day 7 rats, anesthetic dose of ketamine (20 mg/kg), microarray
ADNP = details: 5 mg/kg ketamine, healthy rats without ADNP mutations
[2] = system: activated caspase-3 (AC3); details: anesthetic doses of ketamine

For `CNC1(c2ccccc2Cl)CCCCC1=O` (stereo not drawn) [ketamine, Ketamine], the ADNP gene expression [1] is given as “increases significantly”, the “ADNP in the Fasciola Cinereum (FC) and SSC layers II/III” value (ADNP) is given as “increased ADNP” and the “levels of pro-apoptotic enzyme activated caspase-3 (AC3)” value [2] is given as “increased levels”.
